Key:
[1] = organ distribution (including tumor and lymph node concentration) after intravenous administration in prostate cancer-bearing rats; type: in vivo; conditions: 200 μmol Gd/kg i.v.
Procedure: After intravenous administration of 200 μmol of total gadolinium/kg of body weight of a polar Gd-chelate with perfluorinated side chains (metal complex XIV) in rats (Cop-inbreeding with Dunning R3327 MAT-Lu prostate cancer i.m.-implanted 12 days earlier), the metal content in various organs, in tumors, as well as in the lymph nodes (pooled as mesenteric and peripheral lymph nodes) was determined 10 minutes, 1 hour and 24 hours after administration (MW±SD, n=3).

[2] = test system: iliac and inguinal lymph nodes; experiment: lymph node visualization (MRT) after intravenous administration in guinea pigs with stimulated lymph nodes; type: in vivo; conditions: 200 μmol of Gd/kg i.v.
Procedure: By way of example, the pictures in FIG. 14 show MR images of iliac and inguinal lymph nodes precontrast and up to 24 hours after intravenous administration of 200 μmol of Gd/kg of body weight of metal complex XIV in guinea pigs with stimulated lymph nodes (Freund adjuvant). […] The enhancement was 127% at the time of 60 minutes p.i.

[3] = Mesentric lymph nodes, 10 min p.i.
[4] = Mesentric lymph nodes, 1 h p.i.
[5] = Mesentric lymph nodes, 24 h p.i.
[6] = Peripheral lymph nodes, 10 min p.i.
[7] = Peripheral lymph nodes, 1 h p.i.
[8] = Peripheral lymph nodes, 24 h p.i.
[9] = The remainder of the body, 10 min p.i.
[10] = The remainder of the body, 1 h p.i.
[11] = The remainder of the body, 24 h p.i.

% Dose ([1]; Balance (without blood values), 24 h p.i.): 95.07 ± 2.41 % Dose | % Dose ([1]; Blood (58 ml of blood/kg of body weight), 10 min p.i.): 26.73 ± 0.84 % Dose | % Dose ([1]; Blood (58 ml of blood/kg of body weight), 1 h p.i.): 16.13 ± 1.77 % Dose | % Dose ([1]; Blood (58 ml of blood/kg of body weight), 24 h p.i.): 0.61 ± 0.03 % Dose | Gd concentration ([1]; Blood, 10 min p.i.): 957 ± 38 µmol/L | Gd concentration ([1]; Blood, 1 h p.i.): 575 ± 56 µmol/L | Gd concentration ([1]; Blood, 24 h p.i.): 22 ± 1 µmol/L | % Dose ([1]; Brain, 10 min p.i.): 0.10 ± 0.03 % Dose | Gd concentration ([1]; Brain, 10 min p.i.): 38 ± 6 µmol/L | % Dose ([1]; Brain, 1 h p.i.): 0.06 ± 0.00 % Dose | Gd concentration ([1]; Brain, 1 h p.i.): 22 ± 2 µmol/L | % Dose ([1]; Brain, 24 h p.i.): 0.01 ± 0.01 % Dose | Gd concentration ([1]; Brain, 24 h p.i.): 4 ± 4 µmol/L | % Dose ([1]; Feces 0-24 h): 6.00 ± 4.91 % Dose | Gd concentration ([1]; Feces 0-24 h): 781 ± 611 µmol/L | % Dose ([1]; Femur, 10 min p.i.): 0.39 ± 0.02 % Dose | Gd concentration ([1]; Femur, 10 min p.i.): 115 ± 3 µmol/L | % Dose ([1]; Femur, 1 h p.i.): 0.28 ± 0.03 % Dose | Gd concentration ([1]; Femur, 1 h p.i.): 81 ± 10 µmol/L | % Dose ([1]; Femur, 24 h p.i.): 0.03 ± 0.00 % Dose | Gd concentration ([1]; Femur, 24 h p.i.): 9 ± 1 µmol/L | % Dose ([1]; Heart, 10 min p.i.): 0.32 ± 0.01 % Dose | Gd concentration ([1]; Heart, 10 min p.i.): 320 ± 8 µmol/L | % Dose ([1]; Heart, 1 h p.i.): 0.19 ± 0.01 % Dose | Gd concentration ([1]; Heart, 1 h p.i.): 190 ± 15 µmol/L | % Dose ([1]; Heart, 24 h p.i.): 0.02 ± 0.00 % Dose | Gd concentration ([1]; Heart, 24 h p.i.): 19 ± 0 µmol/L | % Dose ([1]; Intestine (empty), 10 min p.i.): 1.55 ± 0.09 % Dose | Gd concentration ([1]; Intestine (empty), 10 min p.i.): 242 ± 15 µmol/L | % Dose ([1]; Intestine (empty), 1 h p.i.): 1.16 ± 0.22 % Dose | Gd concentration ([1]; Intestine (empty), 1 h p.i.): 201 ± 32 µmol/L | % Dose ([1]; Intestine (empty), 24 h p.i.): 0.26 ± 0.04 % Dose | Gd concentration ([1]; Intestine (empty), 24 h p.i.): 36 ± 5 µmol/L | % Dose ([1]; Kidney, 10 min p.i.): 1.76 ± 0.14 % Dose | Gd concentration ([1]; Kidney, 10 min p.i.): 761 ± 60 µmol/L | % Dose ([1]; Kidney, 1 h p.i.): 2.84 ± 0.61 % Dose | Gd concentration ([1]; Kidney, 1 h p.i.): 1181 ± 232 µmol/L | % Dose ([1]; Kidney, 24 h p.i.): 0.81 ± 0.09 % Dose | Gd concentration ([1]; Kidney, 24 h p.i.): 338 ± 49 µmol/L | % Dose ([1]; Liver, 10 min p.i.): 2.62 ± 0.11 % Dose | Gd concentration ([1]; Liver, 10 min p.i.): 192 ± 12 µmol/L | % Dose ([1]; Liver, 1 h p.i.): 2.04 ± 0.15 % Dose | Gd concentration ([1]; Liver, 1 h p.i.): 147 ± 7 µmol/L | % Dose ([1]; Liver, 24 h p.i.): 0.96 ± 0.05 % Dose | Gd concentration ([1]; Liver, 24 h p.i.): 64 ± 4 µmol/L | % Dose ([1]; Lung, 10 min p.i.): 1.04 ± 0.02 % Dose | Gd concentration ([1]; Lung, 10 min p.i.): 603 ± 30 µmol/L | % Dose ([1]; Lung, 1 h p.i.): 0.80 ± 0.06 % Dose | Gd concentration ([1]; Lung, 1 h p.i.): 415 ± 39 µmol/L | % Dose ([1]; Lung, 24 h p.i.): 0.09 ± 0.01 % Dose | Gd concentration ([1]; Lung, 24 h p.i.): 44 ± 4 µmol/L | % Dose [1, 3]: 0.08 ± 0.01 % Dose | Gd concentration [1, 3]: 291 ± 29 µmol/L | % Dose [1, 4]: 0.05 ± 0.01 % Dose | Gd concentration [1, 4]: 179 ± 16 µmol/L | % Dose [1, 5]: 0.02 ± 0.00 % Dose | Gd concentration [1, 5]: 50 ± 6 µmol/L | % Dose ([1]; Muscle, 10 min p.i.): 0.06 ± 0.02 % Dose | Gd concentration ([1]; Muscle, 10 min p.i.): 93 ± 5 µmol/L | % Dose ([1]; Muscle, 1 h p.i.): 0.04 ± 0.00 % Dose | Gd concentration ([1]; Muscle, 1 h p.i.): 56 ± 3 µmol/L | % Dose ([1]; Muscle, 24 h p.i.): 0.00 ± 0.00 % Dose | Gd concentration ([1]; Muscle, 24 h p.i.): 8 ± 1 µmol/L | % Dose ([1]; Pancreas, 10 min p.i.): 0.35 ± 0.02 % Dose | Gd concentration ([1]; Pancreas, 10 min p.i.): 191 ± 14 µmol/L | % Dose ([1]; Pancreas, 1 h p.i.): 0.21 ± 0.05 % Dose | Gd concentration ([1]; Pancreas, 1 h p.i.): 139 ± 26 µmol/L | % Dose ([1]; Pancreas, 24 h p.i.): 0.03 ± 0.01 % Dose | Gd concentration ([1]; Pancreas, 24 h p.i.): 25 ± 1 µmol/L | % Dose [1, 6]: 0.13 ± 0.00 % Dose | Gd concentration [1, 6]: 284 ± 19 µmol/L | % Dose [1, 7]: 0.14 ± 0.02 % Dose | Gd concentration [1, 7]: 254 ± 14 µmol/L | % Dose [1, 8]: 0.02 ± 0.00 % Dose | Gd concentration [1, 8]: 51 ± 5 µmol/L | % Dose ([1]; Spleen, 10 min p.i.): 0.13 ± 0.01 % Dose | Gd concentration ([1]; Spleen, 10 min p.i.): 200 ± 13 µmol/L | % Dose ([1]; Spleen, 1 h p.i.): 0.08 ± 0.01 % Dose | Gd concentration ([1]; Spleen, 1 h p.i.): 123 ± 10 µmol/L | % Dose ([1]; Spleen, 24 h p.i.): 0.06 ± 0.00 % Dose | Gd concentration ([1]; Spleen, 24 h p.i.): 69 ± 5 µmol/L | % Dose ([1]; Stomach (empty), 10 min p.i.): 0.56 ± 0.07 % Dose | Gd concentration ([1]; Stomach (empty), 10 min p.i.): 244 ± 17 µmol/L | % Dose ([1]; Stomach (empty), 1 h p.i.): 0.40 ± 0.05 % Dose | Gd concentration ([1]; Stomach (empty), 1 h p.i.): 165 ± 21 µmol/L | % Dose ([1]; Stomach (empty), 24 h p.i.): 0.05 ± 0.00 % Dose | Gd concentration ([1]; Stomach (empty), 24 h p.i.): 19 ± 2 µmol/L | % Dose ([1]; Sum of the organs, 10 min p.i.): 80.06 ± 2.84 % Dose | % Dose ([1]; Sum of the organs, 1 h p.i.): 72.94 ± 5.83 % Dose | % Dose ([1]; Sum of the organs, 24 h p.i.): 9.21 ± 0.27 % Dose | % Dose [1, 9]: 70.71 ± 2.74 % Dose | Gd concentration [1, 9]: 419 ± 27 µmol/L | % Dose [1, 10]: 64.27 ± 5.50 % Dose | Gd concentration [1, 10]: 392 ± 25 µmol/L | % Dose [1, 11]: 6.81 ± 0.16 % Dose | Gd concentration [1, 11]: 42 ± 0 µmol/L | % Dose ([1]; Tumor, 10 min p.i.): 0.25 ± 0.05 % Dose | Gd concentration ([1]; Tumor, 10 min p.i.): 246 ± 25 µmol/L | % Dose ([1]; Tumor, 1 h p.i.): 0.37 ± 0.14 % Dose | Gd concentration ([1]; Tumor, 1 h p.i.): 266 ± 87 µmol/L | % Dose ([1]; Tumor, 24 h p.i.): 0.04 ± 0.01 % Dose | Gd concentration ([1]; Tumor, 24 h p.i.): 56 ± 4 µmol/L | % Dose ([1]; Urine 0-24 h): 79.86 ± 3.13 % Dose | Gd concentration ([1]; Urine 0-24 h): 619 ± 19 µmol/L
SMILES: CC(C(=O)NCC(=O)NCC(=O)N1CCN(C(=O)CNC(=O)CNC(=O)C(C)N2CCN(CC(=O)[O-])CCN(CC(=O)[O-])CCN(CC(=O)[O-])CC2)CCN(C(=O)COCCC(F)(F)C(F)(F)C(F)(F)C(F)(F)C(F)(F)C(F)(F)C(F)(F)C(F)(F)F)CCN(C(=O)CNC(=O)CNC(=O)C(C)N2CCN(CC(=O)[O-])CCN(CC(=O)[O-])CCN(CC(=O)[O-])CC2)CC1)N1CCN(CC(=O)[O-])CCN(CC(=O)[O-])CCN(CC(=O)[O-])CC1.[Gd+3].[Gd+3].[Gd+3] (stereo not shown) [metal complex XIV, 1,4,7-Tris{1,4,7-tris(N-(carboxylatomethyl)-10-[N-1-methyl-3,6-diaza-2,5,8-trioxooctane-1,8-diyl]-1,4,7,10-tetraazacyclododecane, Gdcomplex}-10-N-2H,2H,4H,4H,5H,5H-3-oxa-perfluoro-tridecanoyl]-1,4,7,10-tetraazacyclo-dodecane, Gd complex]
enhancement in lymph node tissue ([2]; 60 minutes p.i.): 127% | signal in healthy lymph node tissue (T1-weighted gradient-echo images) ([2]; very shortly after injection): strong signal rise

From patent US6818203B2, “Use of perfluoroalkyl-containing metal complexes as contrast media in MR-imaging for visualization of plaque, tumors and necroses” (Schering Aktiengesellschaft, priority 2000, dated 2004)
